Source: ChEMBL document CHEMBL4507287, “Data for DCP probe MRL-650” (2021)

Key:
[1] = test system: Epidermal growth factor receptor (Homo sapiens), P00533 [L858R,T790M]; conditions: Compound concentration 1000.0 nM
[2] = molecular target: Dual specificity mitogen-activated protein kinase kinase 2 (Homo sapiens) (UniProt P36507); conditions: Compound concentration 1000.0 nM
[3] = molecular target: Serine/threonine-protein kinase DCLK1 (Homo sapiens) (UniProt O15075); conditions: Compound concentration 1000.0 nM
[4] = molecular target: Histamine H2 receptor (Homo sapiens) (UniProt P25021); conditions: Compound concentration 10.0 uM
[5] = molecular target: Epithelial discoidin domain-containing receptor 1 (Homo sapiens) (UniProt Q08345); conditions: Compound concentration 1000.0 nM
[6] = molecular target: Myosin light chain kinase 2, skeletal/cardiac muscle (Homo sapiens) (UniProt Q9H1R3); conditions: Compound concentration 1000.0 nM
[7] = molecular target: Tyrosine-protein kinase ABL1 (Homo sapiens) (UniProt P00519); conditions: Compound concentration 1000.0 nM
[8] = molecular target: Glycogen synthase kinase-3 beta (Homo sapiens) (UniProt P49841); conditions: Compound concentration 1000.0 nM
[9] = molecular target: Receptor-interacting serine/threonine-protein kinase 2 (Homo sapiens) (UniProt O43353); conditions: Compound concentration 1000.0 nM
[10] = molecular target: Tyrosine-protein kinase receptor Tie-1 (Homo sapiens) (UniProt P35590); conditions: Compound concentration 1000.0 nM
[11] = molecular target: Serine/threonine-protein kinase N2 (Homo sapiens) (UniProt Q16513); conditions: Compound concentration 1000.0 nM
[12] = molecular target: Sigma intracellular receptor 2 (Homo sapiens, UniProt Q5BJF2); conditions: Compound concentration 10.0 uM
[13] = molecular target: Ribosomal protein S6 kinase beta-1 (Homo sapiens) (UniProt P23443); conditions: Compound concentration 1000.0 nM
[14] = molecular target: NUAK family SNF1-like kinase 2 (Homo sapiens) (UniProt Q9H093); conditions: Compound concentration 1000.0 nM
[15] = molecular target: Phosphorylase b kinase regulatory subunit alpha, liver isoform (Homo sapiens) (UniProt P46019); conditions: Compound concentration 1000.0 nM
[16] = molecular target: D(3) dopamine receptor (Homo sapiens) (UniProt P35462); conditions: Compound concentration 10.0 uM
[17] = molecular target: Glycogen synthase kinase-3 alpha (Homo sapiens) (UniProt P49840); conditions: Compound concentration 1000.0 nM
[18] = test system: Serine/threonine-protein kinase B-raf (Homo sapiens), P15056 [V600E]; conditions: Compound concentration 1000.0 nM
[19] = molecular target: Cyclin-dependent kinase 2 homolog (Plasmodium falciparum (isolate 3D7)) (UniProt P61075); conditions: Compound concentration 1000.0 nM
[20] = molecular target: Fibroblast growth factor receptor 2 (Homo sapiens) (UniProt P21802); conditions: Compound concentration 1000.0 nM
[21] = molecular target: Ribosomal protein S6 kinase alpha-1 (Homo sapiens) (UniProt Q15418); conditions: Compound concentration 1000.0 nM
[22] = molecular target: cGMP-dependent protein kinase 2 (Homo sapiens) (UniProt Q13237); conditions: Compound concentration 1000.0 nM
[23] = molecular target: Serine/threonine-protein kinase 32C (Homo sapiens) (UniProt Q86UX6); conditions: Compound concentration 1000.0 nM
[24] = molecular target: Calcium/calmodulin-dependent protein kinase type II subunit beta (Homo sapiens) (UniProt Q13554); conditions: Compound concentration 1000.0 nM
[25] = molecular target: Ribosomal protein S6 kinase alpha-3 (Homo sapiens) (UniProt P51812); conditions: Compound concentration 1000.0 nM
[26] = molecular target: Serine/threonine-protein kinase Nek7 (Homo sapiens) (UniProt Q8TDX7); conditions: Compound concentration 1000.0 nM
[27] = molecular target: Protein kinase C epsilon type (Homo sapiens) (UniProt Q02156); conditions: Compound concentration 1000.0 nM
[28] = molecular target: Insulin receptor (Homo sapiens) (UniProt P06213); conditions: Compound concentration 1000.0 nM
[29] = molecular target: Protein-tyrosine kinase 2-beta (Homo sapiens) (UniProt Q14289); conditions: Compound concentration 1000.0 nM
[30] = molecular target: Cyclin-dependent kinase 18 (Homo sapiens) (UniProt Q07002); conditions: Compound concentration 1000.0 nM
[31] = molecular target: Mitogen-activated protein kinase kinase kinase kinase 1 (Homo sapiens) (UniProt Q92918); conditions: Compound concentration 1000.0 nM
[32] = molecular target: Aurora kinase C (Homo sapiens) (UniProt Q9UQB9); conditions: Compound concentration 1000.0 nM
[33] = test system: Mast/stem cell growth factor receptor Kit (Homo sapiens), P10721 [A829P]; conditions: Compound concentration 1000.0 nM
[34] = molecular target: NUAK family SNF1-like kinase 1 (Homo sapiens) (UniProt O60285); conditions: Compound concentration 1000.0 nM
[35] = molecular target: Protein kinase C eta type (Homo sapiens) (UniProt P24723); conditions: Compound concentration 1000.0 nM
[36] = molecular target: Sodium-dependent dopamine transporter (Homo sapiens, UniProt Q01959); conditions: Compound concentration 10.0 uM
[37] = molecular target: Calcium/calmodulin-dependent protein kinase type 1 (Homo sapiens) (UniProt Q14012); conditions: Compound concentration 1000.0 nM
[38] = molecular target: Alpha-2C adrenergic receptor (Homo sapiens) (UniProt P18825); conditions: Compound concentration 10.0 uM
[39] = molecular target: D(4) dopamine receptor (Homo sapiens) (UniProt P21917); conditions: Compound concentration 10.0 uM
[40] = molecular target: Serine/threonine-protein kinase D3 (Homo sapiens) (UniProt O94806); conditions: Compound concentration 1000.0 nM
[41] = molecular target: Serine/threonine-protein kinase SBK1 (Homo sapiens) (UniProt Q52WX2); conditions: Compound concentration 1000.0 nM
[42] = molecular target: Serine/threonine-protein kinase PLK2 (Homo sapiens) (UniProt Q9NYY3); conditions: Compound concentration 1000.0 nM
[43] = molecular target: Mitogen-activated protein kinase 3 (Homo sapiens) (UniProt P27361); conditions: Compound concentration 1000.0 nM
[44] = molecular target: Mitogen-activated protein kinase kinase kinase kinase 5 (Homo sapiens) (UniProt Q9Y4K4); conditions: Compound concentration 1000.0 nM
[45] = molecular target: Tyrosine-protein kinase Srms (Homo sapiens) (UniProt Q9H3Y6); conditions: Compound concentration 1000.0 nM
[46] = molecular target: Serine/threonine-protein kinase PLK3 (Homo sapiens) (UniProt Q9H4B4); conditions: Compound concentration 1000.0 nM

NUAK family SNF1-like kinase 2 (Homo sapiens), sequence (Q9H093 whole entry, canonical isoform): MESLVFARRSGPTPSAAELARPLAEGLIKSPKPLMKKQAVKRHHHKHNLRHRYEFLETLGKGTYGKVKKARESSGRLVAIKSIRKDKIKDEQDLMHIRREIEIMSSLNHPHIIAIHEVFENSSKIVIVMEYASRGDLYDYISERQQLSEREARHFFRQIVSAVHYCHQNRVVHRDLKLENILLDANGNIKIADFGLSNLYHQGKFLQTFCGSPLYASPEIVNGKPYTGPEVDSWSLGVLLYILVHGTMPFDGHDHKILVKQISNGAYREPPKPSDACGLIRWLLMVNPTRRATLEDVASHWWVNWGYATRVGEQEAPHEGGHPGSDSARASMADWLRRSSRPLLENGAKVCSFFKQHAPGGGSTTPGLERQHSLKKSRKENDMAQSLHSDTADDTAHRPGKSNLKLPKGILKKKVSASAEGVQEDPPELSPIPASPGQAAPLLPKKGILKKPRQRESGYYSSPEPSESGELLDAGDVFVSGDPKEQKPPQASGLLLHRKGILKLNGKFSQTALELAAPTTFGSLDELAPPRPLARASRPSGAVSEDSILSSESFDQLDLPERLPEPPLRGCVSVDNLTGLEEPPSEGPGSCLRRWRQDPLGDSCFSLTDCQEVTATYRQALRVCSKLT
Calcium/calmodulin-dependent protein kinase type II subunit beta (Homo sapiens), sequence (Q13554 whole entry): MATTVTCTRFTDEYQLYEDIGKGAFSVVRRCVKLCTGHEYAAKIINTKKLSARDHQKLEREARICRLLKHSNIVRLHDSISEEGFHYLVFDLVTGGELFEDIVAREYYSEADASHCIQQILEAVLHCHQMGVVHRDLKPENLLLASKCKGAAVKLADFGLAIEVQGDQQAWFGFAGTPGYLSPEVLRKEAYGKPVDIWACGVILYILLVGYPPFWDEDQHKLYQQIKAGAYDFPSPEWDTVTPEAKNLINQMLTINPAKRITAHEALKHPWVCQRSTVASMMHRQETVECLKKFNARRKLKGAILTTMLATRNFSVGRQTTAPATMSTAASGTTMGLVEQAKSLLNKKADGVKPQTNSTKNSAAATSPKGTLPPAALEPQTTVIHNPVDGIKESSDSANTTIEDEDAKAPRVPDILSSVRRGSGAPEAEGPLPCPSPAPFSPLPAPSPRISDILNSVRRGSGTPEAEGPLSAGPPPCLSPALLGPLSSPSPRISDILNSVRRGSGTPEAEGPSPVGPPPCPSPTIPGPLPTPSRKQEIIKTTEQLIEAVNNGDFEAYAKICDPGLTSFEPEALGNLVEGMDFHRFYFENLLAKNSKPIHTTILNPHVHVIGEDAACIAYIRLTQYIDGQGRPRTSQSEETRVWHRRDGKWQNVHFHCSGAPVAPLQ
Ribosomal protein S6 kinase beta-1 (Homo sapiens), sequence (P23443 whole entry, looked up): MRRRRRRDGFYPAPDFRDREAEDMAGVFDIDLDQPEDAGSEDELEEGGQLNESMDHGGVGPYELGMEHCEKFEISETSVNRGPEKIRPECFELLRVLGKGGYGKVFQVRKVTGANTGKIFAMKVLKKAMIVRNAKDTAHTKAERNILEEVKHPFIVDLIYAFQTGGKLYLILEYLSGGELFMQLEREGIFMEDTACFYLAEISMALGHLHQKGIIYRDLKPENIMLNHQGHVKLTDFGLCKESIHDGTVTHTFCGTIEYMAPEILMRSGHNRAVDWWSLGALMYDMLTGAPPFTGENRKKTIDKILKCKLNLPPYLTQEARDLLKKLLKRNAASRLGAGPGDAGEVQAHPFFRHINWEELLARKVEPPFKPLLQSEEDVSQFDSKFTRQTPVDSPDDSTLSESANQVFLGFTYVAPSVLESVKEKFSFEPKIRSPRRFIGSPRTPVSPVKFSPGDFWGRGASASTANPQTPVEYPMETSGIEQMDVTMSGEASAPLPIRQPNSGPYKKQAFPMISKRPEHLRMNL
Tyrosine-protein kinase Srms (Homo sapiens), sequence (Q9H3Y6 whole entry): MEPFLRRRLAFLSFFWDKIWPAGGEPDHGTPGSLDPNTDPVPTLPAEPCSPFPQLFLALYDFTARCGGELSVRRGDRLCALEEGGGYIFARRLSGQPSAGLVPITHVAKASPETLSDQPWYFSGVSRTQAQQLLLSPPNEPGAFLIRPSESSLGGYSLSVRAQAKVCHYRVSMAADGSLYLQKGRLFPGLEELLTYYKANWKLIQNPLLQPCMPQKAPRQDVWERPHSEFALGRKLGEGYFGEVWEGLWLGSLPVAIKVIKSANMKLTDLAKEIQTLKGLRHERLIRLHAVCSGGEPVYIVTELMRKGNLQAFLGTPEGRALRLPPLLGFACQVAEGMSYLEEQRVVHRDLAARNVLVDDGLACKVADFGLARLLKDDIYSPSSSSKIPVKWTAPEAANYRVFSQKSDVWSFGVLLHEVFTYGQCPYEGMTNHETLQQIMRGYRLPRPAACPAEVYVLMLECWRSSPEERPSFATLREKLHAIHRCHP
NUAK family SNF1-like kinase 1 (Homo sapiens), sequence (O60285 whole entry): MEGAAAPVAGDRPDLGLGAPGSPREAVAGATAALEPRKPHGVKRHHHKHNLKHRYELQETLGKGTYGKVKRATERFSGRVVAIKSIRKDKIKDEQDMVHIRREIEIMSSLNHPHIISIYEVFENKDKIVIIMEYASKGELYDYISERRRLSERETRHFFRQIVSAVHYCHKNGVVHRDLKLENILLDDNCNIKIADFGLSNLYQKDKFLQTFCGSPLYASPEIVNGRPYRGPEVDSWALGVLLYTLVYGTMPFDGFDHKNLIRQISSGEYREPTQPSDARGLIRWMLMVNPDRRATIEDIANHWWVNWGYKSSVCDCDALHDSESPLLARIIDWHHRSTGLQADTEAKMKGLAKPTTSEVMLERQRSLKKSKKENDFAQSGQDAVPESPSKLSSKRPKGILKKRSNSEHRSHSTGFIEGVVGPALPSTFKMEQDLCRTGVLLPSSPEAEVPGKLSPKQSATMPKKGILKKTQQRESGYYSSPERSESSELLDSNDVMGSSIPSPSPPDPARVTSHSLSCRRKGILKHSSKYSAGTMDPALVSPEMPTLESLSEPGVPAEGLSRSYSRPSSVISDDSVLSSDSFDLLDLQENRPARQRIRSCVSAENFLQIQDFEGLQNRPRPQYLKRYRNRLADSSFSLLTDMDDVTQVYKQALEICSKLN
Insulin receptor (Homo sapiens), sequence (P06213 28-758 limits assumed): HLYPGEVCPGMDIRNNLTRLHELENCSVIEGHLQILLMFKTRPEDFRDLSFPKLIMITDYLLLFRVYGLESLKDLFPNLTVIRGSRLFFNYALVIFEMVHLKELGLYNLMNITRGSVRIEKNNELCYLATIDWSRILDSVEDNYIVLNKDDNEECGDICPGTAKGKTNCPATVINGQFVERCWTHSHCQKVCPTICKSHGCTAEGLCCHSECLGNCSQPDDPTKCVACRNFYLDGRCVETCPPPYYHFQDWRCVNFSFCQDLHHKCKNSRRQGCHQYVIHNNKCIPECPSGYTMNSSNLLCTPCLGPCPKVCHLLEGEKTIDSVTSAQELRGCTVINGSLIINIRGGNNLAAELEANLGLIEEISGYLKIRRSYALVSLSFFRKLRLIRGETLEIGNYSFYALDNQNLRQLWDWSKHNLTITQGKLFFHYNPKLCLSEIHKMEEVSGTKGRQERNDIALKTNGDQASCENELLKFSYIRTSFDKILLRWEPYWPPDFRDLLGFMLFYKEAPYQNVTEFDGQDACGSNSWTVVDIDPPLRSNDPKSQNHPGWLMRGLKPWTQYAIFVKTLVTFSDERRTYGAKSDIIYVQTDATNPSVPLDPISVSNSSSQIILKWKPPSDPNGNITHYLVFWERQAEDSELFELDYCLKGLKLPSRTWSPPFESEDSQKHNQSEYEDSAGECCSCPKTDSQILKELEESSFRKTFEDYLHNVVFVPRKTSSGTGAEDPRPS
Insulin receptor (Homo sapiens), sequence (P06213 763-1382 limits assumed): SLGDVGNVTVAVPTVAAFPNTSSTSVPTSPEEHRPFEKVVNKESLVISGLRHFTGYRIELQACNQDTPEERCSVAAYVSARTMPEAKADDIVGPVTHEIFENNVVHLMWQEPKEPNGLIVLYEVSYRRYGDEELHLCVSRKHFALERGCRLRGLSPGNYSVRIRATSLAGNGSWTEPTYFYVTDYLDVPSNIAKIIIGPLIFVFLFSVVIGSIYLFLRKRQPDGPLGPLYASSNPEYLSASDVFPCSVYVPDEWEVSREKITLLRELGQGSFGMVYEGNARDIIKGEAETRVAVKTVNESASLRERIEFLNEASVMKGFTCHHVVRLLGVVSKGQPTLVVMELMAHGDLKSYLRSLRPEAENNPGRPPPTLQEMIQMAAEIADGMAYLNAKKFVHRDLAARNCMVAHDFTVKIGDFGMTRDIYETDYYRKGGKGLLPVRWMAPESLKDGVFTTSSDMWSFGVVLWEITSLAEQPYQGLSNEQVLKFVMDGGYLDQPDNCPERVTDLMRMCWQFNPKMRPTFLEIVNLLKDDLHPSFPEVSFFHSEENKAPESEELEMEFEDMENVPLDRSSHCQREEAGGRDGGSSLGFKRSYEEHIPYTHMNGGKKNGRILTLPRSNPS
Serine/threonine-protein kinase 32C (Homo sapiens), sequence (Q86UX6 whole entry): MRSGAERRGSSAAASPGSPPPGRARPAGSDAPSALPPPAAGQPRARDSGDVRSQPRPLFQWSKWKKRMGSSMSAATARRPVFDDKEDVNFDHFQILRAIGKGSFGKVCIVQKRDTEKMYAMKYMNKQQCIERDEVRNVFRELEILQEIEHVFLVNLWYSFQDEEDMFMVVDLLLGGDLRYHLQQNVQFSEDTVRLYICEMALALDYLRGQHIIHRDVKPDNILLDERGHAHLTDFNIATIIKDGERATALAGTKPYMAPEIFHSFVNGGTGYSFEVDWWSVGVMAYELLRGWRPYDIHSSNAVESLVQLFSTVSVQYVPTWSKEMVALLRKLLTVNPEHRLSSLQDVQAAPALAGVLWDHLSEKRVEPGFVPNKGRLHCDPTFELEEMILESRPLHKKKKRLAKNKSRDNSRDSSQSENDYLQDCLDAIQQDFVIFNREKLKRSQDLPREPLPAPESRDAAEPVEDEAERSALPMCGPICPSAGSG
Sigma intracellular receptor 2, sequence (Q5BJF2 whole entry): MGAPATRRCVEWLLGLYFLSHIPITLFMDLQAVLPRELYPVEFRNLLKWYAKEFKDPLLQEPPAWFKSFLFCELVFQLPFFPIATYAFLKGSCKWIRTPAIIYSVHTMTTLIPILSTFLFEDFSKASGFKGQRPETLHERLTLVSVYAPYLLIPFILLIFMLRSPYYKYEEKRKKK

CC(=O)Nc1c(C(C)=O)c(=O)n(C)c2nc(-c3ccc(Cl)cc3Cl)c(-c3ccc(Cl)cc3)cc12 [NAPHTHYRIDINONE]
inactive: residual activity [1] 100% | residual activity [2] 100% | residual activity [3] 100% | inhibition [4] 6.71% | residual activity [5] 100% | residual activity [6] 100% | residual activity [7] 85% | residual activity [8] 100% | residual activity [9] 100% | residual activity [10] 100% | residual activity [11] 100% | residual activity [13] 95% | residual activity [14] 100% | residual activity [15] 100% | inhibition [16] 14.3% | residual activity [17] 100% | residual activity [18] 100% | residual activity [19] 100% | residual activity [20] 100% | residual activity [21] 100% | residual activity [22] 100% | residual activity [23] 100% | residual activity [24] 100% | residual activity [25] 99% | residual activity [26] 100% | residual activity [28] 100% | residual activity [29] 100% | residual activity [30] 100% | residual activity [31] 91% | residual activity [32] 100% | residual activity [33] 100% | residual activity [34] 100% | residual activity [35] 100% | inhibition [36] 36.4% | residual activity [37] 100% | inhibition [38] 3.44% | inhibition [39] 22.7% | residual activity [40] 100% | residual activity [41] 80% | residual activity [42] 100% | residual activity [43] 100% | residual activity [44] 100% | residual activity [45] 78% | residual activity [46] 100%
active: inhibition [12] 54.6% | residual activity [27] 48%

CC(=O)c1c(NS(C)(=O)=O)c2cc(-c3ccc(Cl)cc3)c(-c3ccc(Cl)cc3Cl)nc2n(C)c1=O [MRL-CB1-NC]
active: inhibition [36] 67.1% | inhibition [38] 78.9%
inactive: residual activity [1] 89% | residual activity [2] 100% | residual activity [3] 98% | inhibition [4] 13.8% | residual activity [5] 100% | residual activity [6] 98% | residual activity [7] 91% | residual activity [8] 97% | residual activity [9] 96% | residual activity [10] 100% | residual activity [11] 76% | inhibition [12] 17.6% | residual activity [13] 95% | residual activity [14] 89% | residual activity [15] 100% | inhibition [16] 5.91% | residual activity [17] 75% | residual activity [18] 88% | residual activity [19] 100% | residual activity [20] 92% | residual activity [21] 88% | residual activity [22] 100% | residual activity [23] 100% | residual activity [24] 100% | residual activity [25] 100% | residual activity [26] 100% | residual activity [27] 96% | residual activity [28] 73% | residual activity [29] 100% | residual activity [30] 100% | residual activity [31] 100% | residual activity [32] 100% | residual activity [33] 96% | residual activity [34] 86% | residual activity [35] 91% | residual activity [37] 100% | inhibition [39] 17.1% | residual activity [40] 100% | residual activity [41] 77% | residual activity [42] 96% | residual activity [43] 100% | residual activity [44] 100% | residual activity [45] 71% | residual activity [46] 89%
